According to patent publication US20230125698A1, “APHERESIS COLUMN FOR TREATING RHEUMATOID ARTHRITIS” (UNIVERSITÉ PAUL SABATIER TOULOUSE III, priority 2020, published 2023):
Non-standard residues stand in square brackets, D forms with d. No end group written: not given here. Cit = NC(=O)NCCC[C@H](N)C(=O)O

Key:
[1] = tested on: anti-citrullinated peptide/protein antibodies (ACPA) in serums from AhFibA-positive rheumatoid arthritis patients; test: ELISA reactivity of rheumatoid arthritis patient serums with respect to the citrullinated peptides; format: binding, human; parameters: key to Reactivity profile of serum with respect to the peptide: +++: strong positive; ++: medium positive; +: weak positive; empty box: negative; settings: for Correlation between the reactivities of the serums with respect to the different peptides (Spearman): 202 serums, peptide pairs compared; for Reactivity profile of serum with respect to the peptide: ELISA
Description: Serum samples were obtained from 202 rheumatoid arthritis patients positive for the “AhFibA” ELISA test, which allows to detect and titer the ACPA using the citrullinated human fibrinogen as an immunosorbent.
The antigens or immunosorbents (citrullinated fibrinogen or citrullinated and non-citrullinated peptides), solubilised in PBS (1.5 mM KH2PO4 SIGMA 795488; 7 mM K2HPO4 SIGMA P3786; 0.15M NaCl SIGMA 31434; pH 7.2) at concentrations of 5 and 10 μg/mL, are adsorbed in the microtiter plate wells (MAXISORP NUNC 2023-09) by incubation overnight at 4° C., or used in avidin-biotin system: avidin 5 μg/mL in PBS incubated overnight at 4° C. and then, after washing, biotinylated peptide at 10 μg/mL in PBS, incubated 1 h at 4° C. After blocking in PBS 2% BSA (Sigma A3059) for 1 hour at 4° C. and washing in PBS 0.1% Tween®20 (SIGMA P1379), the samples to be tested are deposited diluted 1:50 (1:100 in the Avidin-Biotin system) or at equivalent corrected dilutions, in PBS 2% BSA 2MNaCl. After washing, the secondary antibody (goat anti-human IgG Fc fragment coupled to horseradish peroxidase; Southern Biotech 2040-05) is incubated for 1 hour at 4° C. After washing, the revelation is performed with a solution of Ortho-Phenylene Diamine dihydrochloride (Sigma P2788), 0.03% H2O2 (Sigma H1009), in citrate/H3PO4 buffer pH5 (0.05 M citric acid Sigma C0759; 0.1 M Na2HPO4 Prolabo 28026292) for 5 minutes at room temperature, and then stopped with a solution of H2SO4 6N (Sigma 07208). The optical density (OD) is read at 492 nm with a Multiskan Fc plate reader (ThermoScientific).
Expression of the results of the ELISA tests: for the peptides, the variation in OD between the reactivity of the citrullinated peptide and the reactivity of the non-citrullinated peptide is taken into account, each reactivity being previously subtracted from its blank (OD in the absence of sample). This gives the following formula:
ΔDO=(DOcit−DOblank cit)−(DOnoncit−DOblank noncit) [Math 1]
The ΔDO for the peptides and the OD for the citrullinated fibrinogen are considered to express the titer of the samples tested.
The inter-assay variations are corrected for by using a range of dilutions of a pool of patient serums tested in each microtiter plate. This reference pool, named P97, was made up of 97 samples of the same volume from 97 patients with a high ACPA titer. The OD values of this internal range are compared to that of reference values where each point in the range is the average of 30 determinations previously performed from this same pool. The least squares method then allows to obtain a correction factor which is applied to all the OD values obtained on the corresponding plate. This corrected OD corresponds to the titer of the sample.
The reactivity profiles of the 202 samples of patient serums with respect to the citrullinated fibrinogen and the 4 citrullinated peptides were determined by ELISA in at least two independent assays, each being done in duplicate. For the sake of reproducibility, only the microtiter plates whose internal range required the application of a correction factor between 0.5 and 2 with respect to the reference range were considered.

[2] = tested on: anti-citrullinated peptide/protein antibodies (ACPA) in serums from AhFibA-positive rheumatoid arthritis patients; test: as above; format: binding, human; settings: β60-74Cit-NH2 and/or Ac-α36-50Cit
[3] = serum n°1, ACPA-positive RA patient serum
[4] = serum n°6, ACPA-positive RA patient serum
[5] = serum n°10, ACPA-positive RA patient serum
[6] = serum n°16, ACPA-positive RA patient serum
[7] = serum n°17, ACPA-positive RA patient serum
[8] = serum n°22, ACPA-positive RA patient serum
[9] = serum n°25, ACPA-positive RA patient serum
[10] = serum n°29, ACPA-positive RA patient serum
[11] = serum n°41, ACPA-positive RA patient serum
[12] = serum n°64, ACPA-positive RA patient serum

Substance | Correlation between the reactivities of the serums with respect to the different peptides (Spearman) [1] | Reactivity profile of serum with respect to the peptide [1, 3] | Reactivity profile of serum with respect to the peptide [1, 4] | Reactivity profile of serum with respect to the peptide [1, 5] | Reactivity profile of serum with respect to the peptide [1, 6] | Reactivity profile of serum with respect to the peptide [1, 7] | Reactivity profile of serum with respect to the peptide [1, 8] | Reactivity profile of serum with respect to the peptide [1, 9] | Reactivity profile of serum with respect to the peptide [1, 10] | Reactivity profile of serum with respect to the peptide [1, 11] | Reactivity profile of serum with respect to the peptide [1, 12] | Reactivity of the plasmas tested to the peptide [2] | Percentage of RA serums positive (reactive in ELISA) for the peptide ([1]; 202 serums from AhFibA-positive RA patients)
VDIDIKIX1SCX2GSCS (VDIDIKI[Cit]SC[Cit]GSCS; cysteine pairing not given here) [α171-185Cit, X1 and X2 citrullyl residues; fibrinogen α-chain 171-185] | significant correlations | + | + | + | ++ | +++ | +++ | [empty] | [empty] | ++ | [empty] |  | 
X1GHAKSX2PVX3GIHTS ([Cit]GHAKS[Cit]PV[Cit]GIHTS) [α621-635Cit, X1, X2 and X3 citrullyl residues; fibrinogen α-chain 621-635] | significant correlations | + | +++ | [empty] | +++ | +++ | ++ | + | +++ | [empty] | [empty] |  | 
GPX1VVEX2HQSACKDS (Ac-GP[Cit]VVE[Cit]HQSACKDS) [Ac-α36-50Cit, N-terminal G acetylated; X1 and X2 citrullyl residues; fibrinogen α-chain 36-50] | no correlation was found | [empty] | [empty] | [empty] | + | + | [empty] | +++ | + | +++ | +++ | most of the plasmas tested were reactive | 
X1PAPPPISGGGYX2AX3 ([Cit]PAPPPISGGGY[Cit]A[Cit]-NH2; N-terminus assumed; SMILES CC[C@H](C)[C@H](NC(=O)[C@@H]1CCCN1C(=O)[C@@H]1CCCN1C(=O)[C@@H]1CCCN1C(=O)[C@H](C)NC(=O)[C@@H]1CCCN1C(=O)[C@@H](N)CCCNC(N)=O)C(=O)N[C@@H](CO)C(=O)NCC(=O)NCC(=O)NCC(=O)N[C@@H](Cc1ccc(O)cc1)C(=O)N[C@@H](CCCNC(N)=O)C(=O)N[C@@H](C)C(=O)N[C@@H](CCCNC(N)=O)C(N)=O) [β60-74Cit-NH2, X1, X2 citrullyl; X3 citrullyl derivative with carboxamide in place of terminal carboxyl; fibrinogen β-chain 60-74] | significant correlations | +++ | +++ | +++ | [empty] | +++ | ++ | ++ | [empty] | [empty] | +++ | most of the plasmas tested were reactive | 76%
